According to PubChem BioAssay AID270 (DTP/NCI, 2004):
Values joined by “and” are separate entries in the source; they are usually repeats but may differ in a detail not shown here. Equal values may be shown once. Records with an inconclusive call do not appear.

Tested on: BDF1 mice, s.c. Lewis lung carcinoma, T/C %
Test: NCI In Vivo Anticancer Drug Screen. Data for tumor model Lewis Lung Carcinoma (subcutaneous) in B6D2F1 (BDF1) mice
In short: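 Readout: survival or tumor size, expressed as treated (T) over vehicle control (C). Transplantable tumor implanted in mice; compound given to the treated group.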

`O=P1(N(CCCl)CCCl)NCCCO1` (centres undefined) was tested, and the T/C (endpoint: mean survival time, dose: 100.0 mg/kg/injection, schedule: Q08DX002 (ip), vehicle: saline, higher = longer survival) was 188 % of control, the T/C (endpoint: mean survival time, dose: 300.0 mg/kg/injection, schedule: Q08DX002 (ip), vehicle: saline, higher = longer survival) was 117 % of control and the T/C (endpoint: mean tumor weight (est.), dose: 65.0 mg/kg/injection, schedule: Q01DX009 (ip), vehicle: saline, higher = larger tumour) was 3 % of control. The T/C (endpoint: mean tumor weight (est.), dose: 108.0 mg/kg/injection, schedule: Q01DX001 (ip), vehicle: saline, higher = larger tumour) was 19 % of control and 37 % of control, the T/C (endpoint: mean tumor weight (est.), dose: 300.0 mg/kg/injection, schedule: Q01DX001 (ip), vehicle: saline, higher = larger tumour) was 15 % of control and the T/C (endpoint: mean tumor weight, dose: 6.25 mg/kg/injection, schedule: Q01DX011 (ip), vehicle: saline, higher = larger tumour) was 70 % of control. For the same compound, the T/C (endpoint: mean tumor weight, dose: 12.0 mg/kg/injection, schedule: Q01DX011 (ip), vehicle: saline, higher = larger tumour) was 55 % of control, the T/C (endpoint: mean tumor weight, dose: 12.5 mg/kg/injection, schedule: Q01DX011 (ip), vehicle: saline, higher = larger tumour) was 74 % of control and the T/C (endpoint: mean tumor weight, dose: 17.0 mg/kg/injection, schedule: Q01DX011 (ip), vehicle: saline, higher = larger tumour) was 43 % of control. The T/C (endpoint: mean tumor weight, dose: 22.5 mg/kg/injection, schedule: Q01DX011 (ip), vehicle: saline, higher = larger tumour) was 19 % of control and 40 % of control, the T/C (endpoint: mean tumor weight, dose: 25.0 mg/kg/injection, schedule: Q01DX011 (ip), vehicle: saline, higher = larger tumour) was 3 % of control and 5 % of control and 12 % of control and the T/C (endpoint: mean tumor weight, dose: 45.0 mg/kg/injection, schedule: Q01DX011 (ip), vehicle: saline, higher = larger tumour) was 2 % of control and 11 % of control. The T/C (endpoint: median survival time, dose: 5.0 mg/kg/injection, schedule: Q01DX011 (ip), vehicle: saline, higher = longer survival) was 107 % of control, the T/C (endpoint: median survival time, dose: 10.0 mg/kg/injection, schedule: Q01DX001 (ip), vehicle: saline, higher = longer survival) was 100 % of control and the T/C (endpoint: median survival time, dose: 10.0 mg/kg/injection, schedule: Q01DX005 (ip), vehicle: saline, higher = longer survival) was 153 % of control and 160 % of control. For the same compound, the T/C (endpoint: median survival time, dose: 10.0 mg/kg/injection, schedule: Q01DX009 (ip), vehicle: saline, higher = longer survival) was 90 % of control, the T/C (endpoint: median survival time, dose: 10.0 mg/kg/injection, schedule: Q01DX011 (ip), vehicle: saline, higher = longer survival) was 89 % of control and the T/C (endpoint: median survival time, dose: 20.0 mg/kg/injection, schedule: Q01DX001 (ip), vehicle: saline, higher = longer survival) was 113 % of control. The T/C (endpoint: median survival time, dose: 20.0 mg/kg/injection, schedule: Q01DX005 (ip), vehicle: saline, higher = longer survival) was 113 % of control, the T/C (endpoint: median survival time, dose: 20.0 mg/kg/injection, schedule: Q01DX009 (ip), vehicle: saline, higher = longer survival) was 104 % of control and the T/C (endpoint: median survival time, dose: 20.0 mg/kg/injection, schedule: Q01DX011 (ip), vehicle: saline, higher = longer survival) was 89 % of control. For the same compound, the T/C (endpoint: median survival time, dose: 23.0 mg/kg/injection, schedule: Q01DX009 (ip), vehicle: saline, higher = longer survival) was 121 % of control and 124 % of control, the T/C (endpoint: median survival time, dose: 25.0 mg/kg/injection, schedule: Q01DX001 (ip), vehicle: saline, higher = longer survival) was 98 % of control and 101 % of control and the T/C (endpoint: median survival time, dose: 25.0 mg/kg/injection, schedule: Q01DX004 (ip), vehicle: saline, higher = longer survival) was 154 % of control. For the same compound, the T/C (endpoint: median survival time, dose: 26.0 mg/kg/injection, schedule: Q01DX001 (ip), vehicle: saline, higher = longer survival) was 94 % of control and 95 % of control, the T/C (endpoint: median survival time, dose: 39.0 mg/kg/injection, schedule: Q01DX009 (ip), vehicle: saline, higher = longer survival) was 91 % of control and the T/C (endpoint: median survival time, dose: 40.0 mg/kg/injection, schedule: Q01DX001 (ip), vehicle: saline, higher = longer survival) was 88 % of control. For the same compound, the T/C (endpoint: median survival time, dose: 40.0 mg/kg/injection, schedule: Q01DX009 (ip), vehicle: saline, higher = longer survival) was 222 % of control, the T/C (endpoint: median survival time, dose: 43.0 mg/kg/injection, schedule: Q01DX001 (ip), vehicle: saline, higher = longer survival) was 112 % of control and 117 % of control and the T/C (endpoint: median survival time, dose: 44.0 mg/kg/injection, schedule: Q01DX005 (ip), vehicle: saline, higher = longer survival) was 184 % of control and 233 % of control. For the same compound, the T/C (endpoint: median survival time, dose: 44.4 mg/kg/injection, schedule: Q04DX003 (ip), vehicle: saline, higher = longer survival) was 105 % of control and 224 % of control, the T/C (endpoint: median survival time, dose: 50.0 mg/kg/injection, schedule: Q01DX001 (ip), vehicle: saline, higher = longer survival) was 112 % of control and 117 % of control and the T/C (endpoint: median survival time, dose: 50.0 mg/kg/injection, schedule: Q01DX001 (ip), vehicle: water, higher = longer survival) was 118 % of control. For the same compound, the T/C (endpoint: median survival time, dose: 50.0 mg/kg/injection, schedule: Q01DX004 (ip), vehicle: saline, higher = longer survival) was 225 % of control.
